Measurements as given in patent US7041465B1 (priority 1999, dated 2006).
Where two headings read alike, the source gives them in different places.

How the values were obtained:
[1] = molecular target: FimH (Escherichia coli, UniProt P08191); conditions: peptides coated at 2 nmol/50 μl, FimC protein at 0.1 nmol/50 μl; increasing concentrations of FimH (5–25 pmol/well); FIG. 12
Description: (§1) The peptides were diluted in phosphate buffered saline (PBS) (120 mM NaCl, 2.7 mM KCl, 10 mM, […], pH 7.4) to 2 nmol/50 μl. FimC protein was diluted to 0.1 nmol/50 μl and coated overnight onto microtiter wells with 50 μl/well at 4° C. The ELISA assay was carried out as described in Kuehn et al., 1993 and Hung et al., 1996. Briefly, the wells were washed three times with PBS and blocked with 3% Bovine Serum Albumin (BSA) in PBS for two hours at 25° C. Then the wells were washed three times with PBS. The FimC-FimH co-complex was incubated in 3 M urea to separate the two proteins. Pure FimH in 3 M urea was collected from the flow through of a Source 15S column (Pharmacia). See Barnhart et al., PNAS USA 97: 7709–7714 (2000). The wells were incubated with 50 μl of FimH in 3% BSA-PBS diluted to 5–25 pmol/well FimH for 45 minutes at 25° C. The wells were washed 3 times with PBS followed by incubation with a 1:1000 dilution of mouse anti-FimH antibodies in 3% BSA-PBS for 45 minutes at 25° C. The wells were washed 3 times with PBS followed by incubation with a 1:1000 dilution of goat antiserum to mouse IgG (Sigma) conjugated to alkaline phosphatase diluted in 3% BSA-PBS for 45 minutes at 25° C. The wells were washed 3 times with PBS and washed 3 times with developing buffer (10 mM diethanolamine, 0.4 mM MgCl2). The ELISA was developed by adding 50 μl of substrate (50 μl of filtered 1 mg/ml p-nitrophenyl phosphate; Sigma) in developing buffer. The reaction was incubated for 1 hour at 25° C. in the dark and the absorbance at 405 nm was read.
(§2) The competition assays were carried out similarly. FimC was coated onto microtiter wells at 0.1 nmol/well. FimH at 5 pmol/well in 3% BSA-PBS was added to the FimC coated wells in the presence or the absence of the FimC or FimG peptide at 2 nmol/well or the indicated peptide concentration. Further, increasing concentrations of FimH were incubated with constant concentrations of the FimC or FimG peptides or the FimC protein immobilized on microtiter wells. […] FimH was added to the FimC coated wells in the presence or absence of peptides to FimC or FimG.

[2] = molecular target: FimH binding to FimC (Escherichia coli, UniProt P08191); conditions: FimC coated at 0.1 nmol/well, FimH 5 pmol/well; for FimH binding to immobilized FimC in the presence of increasing concentrations of peptide: FIG. 13; for Inhibition of FimH binding to FimC immobilized on microtiter wells: peptide at 2 nmol/well (tested concentration), FIG. 14
Description: as §1, §2

Chain of FimH binding to FimC (P08191 22-300): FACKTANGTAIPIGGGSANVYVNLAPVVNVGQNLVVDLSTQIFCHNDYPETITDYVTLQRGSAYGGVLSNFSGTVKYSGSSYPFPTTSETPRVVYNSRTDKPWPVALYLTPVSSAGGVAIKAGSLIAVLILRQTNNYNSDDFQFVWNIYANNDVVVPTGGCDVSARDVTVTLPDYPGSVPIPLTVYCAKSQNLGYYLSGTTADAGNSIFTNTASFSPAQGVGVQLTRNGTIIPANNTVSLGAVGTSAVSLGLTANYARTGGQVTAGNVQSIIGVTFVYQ
Chain of FimH (P08191 22-300): as above

| Sequence | FimH binding to the immobilized peptide or FimC protein (ELISA, anti-FimH antibodies, absorbance at 405 nm) [1] | FimH binding to immobilized FimC in the presence of increasing concentrations of peptide [2] | FimH binding to immobilized FimC in the presence of increasing concentrations of peptide ([2]; listed as FimC polypeptide) | Inhibition of FimH binding to FimC immobilized on microtiter wells [2] |
| --- | --- | --- | --- | --- |
| NTLQLAIISR [FimC peptide] | bound well | further decreased the ability of FimH to bind to FimC | inhibit FimH binding to FimC | inhibited the ability of FimH to bind to FimC |
| DVTITVNGK [FimG peptide] | bound well |  |  | did not inhibit |
